Marks after values point to notes of the source that are not given here.
Columns and labels:
Type in all cases: cell-based, Wistar male rats
[1] = test system: diaphysis tissue of the femur (cortical bone); experiment: Bone calcium level in cultured femoral diaphysis tissue pieces; conditions: diaphysis tissue; for Bone calcium level: mean ± SE; for Significant effect on increasing calcium level in the bone tissue (in words): Table 3 concentrations
Procedure: (§1) The femurs were extracted from rats (Wistar male rats; 4 to 5 weeks old) (purchased from Japan SLC Co., Ltd. and fed with solid Oriental yeast (MF)) under anesthesia with ether under a germfree condition. The femurs were each washed with 0.25 M sucrose solution, and then divided into the diaphysis (cortical bone) and metaphysis (cancellous bone). The bone tissue pieces were cultured in a culture medium (Dulbecco's modified culture medium containing 5% of glucose; serum-free medium) containing. β-cryptoxanthin, etc. at […] in an incubator filled with 5% CO2-95% air for 48 hours. β-cryptoxanthin used was “β-cryptoxanthin” of Extrasynthase Co., cycloheximide used was “Cycloheximide” of Sigma Co. Ltd., β-carotene was “β-carotene” of Sigma ? , xanthine was “Xanthine” of Sigma Co, Ltd., parathormone was “Parathormone” of Sigma Co. Ltd. and prostaglandin E2 was “Prostaglandin E2” of Sigma Co. Ltd. In the control, only the culture medium was used without β-cryptoxanthin or the like.
(§2) Bone calcium level in the bone tissue was determined. After the culture in the incubator, the tissue pieces were washed with 0.25 M sucrose solution and dried and then the bone was weighed. Then concentrated nitric acid was added to the tissue pieces. After the incineration at 120° C. for 12 hours, the bone calcium level was determined with an atomic absorption photometer (“Perkin-Elmer 303” of Perkin-Elmer Co.).
(§3) The bone component-increasing effect of β-cryptoxanthin was examined. The diaphysis and metaphysis tissue of the femur was cultured in the above-described culture medium containing β-cryptoxanthin (10^−5 to 10^−5 M) for 48 hours. Calcium level in the bone tissue, alkaline phosphatase activity (enzyme for accelerating the bone calcification) and the amount of deoxyribonucleic acid (DNA; index of number of cells in the bone tissue) were determined by the same methods as in Example 1. In each test group, the determination vas conducted 6 to 8 times and the results were represented by the average value and the standard error. The significant difference was determined by Student's t-test. The result was compared with that of the control. When P value was not higher than 0.01 (**) or not higher than 0.05 (*), the results were statistically significant.

[2] = test system: metaphysis tissue of the femur (cancellous bone); experiment: Bone calcium level in cultured femoral metaphysis tissue pieces; conditions: metaphysis tissue; for Bone calcium level: mean ± SE; for Significant effect on increasing calcium level in the bone tissue (in words): Table 3 concentrations
Procedure: as §1, §2
as §3, with “The diaphysis and metaphysis tissue of the femur was cultured in the above-described culture medium containing β-cryptoxanthin (10^−5 to 10^−5 M) for 48 hours.” left out

[3] = test system: diaphysis tissue of the femur (cortical bone); experiment: Bone alkaline phosphatase activity in cultured femoral diaphysis tissue pieces; conditions: Table 2 (protein synthesis inhibitor experiment), diaphysis tissue, 10^−6 M (each agent), mean ± SE, n=6
Procedure: as §1
(§4) The expression level of alkaline phosphatase, which is the most important enzyme for the acceleration of the calcification of bones, was examined. The tissue pieces cultured in the incubator were washed in 0.25 M sucrose solution, then pulverized in 3 ml of 65 mM barbital buffer (pH 7-4) and treated with ultrasonic waves. The resultant liquid was centrifuged. The supernatant, as the enzyme solution, was determined by a method of Walter ad Schutt in Method of Enzymatic Analysis, Vol. 1-2, p. 856, Academic Press, New York, 1965). Namely, this method was carried out as follows: p-nitrophenylphosphoric acid was used as the substrate. 0.05 ml of the enzyme solution was added to 2 ml of diethanolamine buffer (pH 9.8). After the incubation at 37° C. for 30 minutes, 10 ml of 0.05 N NaOH was added to the mixture. The absorbance (405 nm) was determined with a spectrophotometer to determine bone alkaline phosphatase activity of a bone remedy or a compound known to be effective for the bones.
as §3

[4] = test system: metaphysis tissue of the femur (cancellous bone); experiment: Bone alkaline phosphatase activity in cultured femoral metaphysis tissue pieces; conditions: Table 2 (protein synthesis inhibitor experiment), metaphysis tissue, 10^−6 M (each agent), mean ± SE, n=6
Procedure: as §1, §4, §3

[5] = test system: diaphysis tissue of the femur (cortical bone); experiment: Bone DNA level in cultured femoral diaphysis tissue pieces; conditions: Table 2 (protein synthesis inhibitor experiment), diaphysis tissue, 10^−6 M (each agent), mean ± SE, n=6
Procedure: as §1
(§5) DNA level was determined as an index of the number of cells in the bone tissue. After the culture in an incubator, the tissue pieces were washed with 0.25 M sucrose solution and then the wet weight of them was determined. They were pulverized in 4 ml of 0.1 N NaOH. After the osmosis at 4° C. for 24 hours, the liquid mixture was centrifuged. The supernatant was taken as the sample and determined by a method of Ceriotti et al. (J. Biol. Chem., 241; 34-77, 1951). Namely, 1 ml of concentrated hydrochloric acid and 1 ml of 0.04% indole solution were added to 2 ml of the sample and then the resultant mixture was heated to 100° C. in boiling water. After quenching followed by the extraction with 4 ml of chloroform, the chloroform layer was taken to determine bone DNA level with a spectrophotometer (490 nm).
as §3

[6] = test system: metaphysis tissue of the femur (cancellous bone); experiment: Bone DNA level in cultured femoral metaphysis tissue pieces; conditions: Table 2 (protein synthesis inhibitor experiment), metaphysis tissue, 10^−6 M (each agent), mean ± SE, n=6
Procedure: as §1, §5, §3

[7] = test system: diaphysis tissue of the femur; experiment: Bone resorption (PTH or prostaglandin E2): bone calcium level in cultured diaphysis tissue
Procedure: as §1, §2
(§6) The bone mineral dissolution-inhibiting effect of β-cryptoxanthin was examined. […] PTH also has a pathophysiologic role on the expression of osteoporosis caused by the aging. It is known that prostaglandin E2 also causes physiologic bone mineral dissolution. The diaphysis or metaphysis tissue of the femur was cultured in the presence of 10^−7 M PTH or 10^−5 M prostaglandin E2 for 48 hours and then calcium level in the bone tissue was determined. In another experiment, the culture was conducted in the same manner as that described above in the coexistence of them and β-cryptoxanthin (10^−8 M to 10^−6 M) and then calcium level in the bone tissue was determined. In each test group, the determination was conducted 6 to 8 times and the results were represented by the average value and the standard error. The significant difference was determined by Student's t-test. The result was compared with that of the control. When P value was not higher than 0.01 (*) as compared with the control or it is not higher than 0.1 (#) as compared with that of prostaglandin E2, the results were statistically significant.

[8] = test system: metaphysis tissue of the femur; experiment: Bone resorption (PTH or prostaglandin E2): bone calcium level in cultured metaphysis tissue
Procedure: as §1, §2, §6

[9] = Table 2 (protein synthesis inhibitor experiment), 10^−6 M (each agent), n=6
[10] = Comparative Example (Table 3), 10^−6 M, 48 h culture
[11] = Comparative Example (Table 3), 10^−7 M, 48 h culture
[12] = 10^−7 M PTH, 48 h culture, vs control

For C[C@@H]1C[C@@H]([C@H](O)CC2CC(=O)NC(=O)C2)C(=O)[C@@H](C)C1 [Cycloheximide, reference compound], the Bone calcium level [1, 9] was 204.0 ± 15.59 mg/g dry weight, the Bone calcium level [2, 9] was 156.4 ± 2.81 mg/g dry weight and the “Bone alkaline phosphatase activity” value [3] was 534.5 ± 64.2 nmol/min/mg protein. For the same molecule, the “Bone alkaline phosphatase activity” value [4] was 948.8 ± 21.1 nmol/min/mg protein, the “Bone DNA level” value [5] was 1.299 ± 0.127 mg/g bone wet weight and the “Bone DNA level” value [6] was 3.001 ± 0.454 mg/g bone wet weight.

For CCCCC[C@H](O)/C=C/[C@H]1[C@H](O)CC(=O)[C@@H]1C/C=C\CCCC(=O)O [Prostaglandin E2, reference compound], the “Effect of prostaglandin E2 on calcium level in the bone tissue (in words)” value ([7]; diaphysis tissue, prostaglandin E2 10^−5 M) was “significant reduction”, the Bone calcium level ([7]; diaphysis tissue, prostaglandin E2 10^−5 M alone, 48 h culture) was 182.8 ± 4.06* mg/g dry weight and the “Effect of prostaglandin E2 on calcium level in the bone tissue (in words)” value ([8]; metaphysis tissue, prostaglandin E2 10^−5 M) was “significant reduction”. For the same molecule, the Bone calcium level ([8]; metaphysis tissue, prostaglandin E2 10^−6 M alone, 48 h culture) was 163.5 ± 1.47* mg/g dry weight.

Oc1nc(O)c2[nH]cnc2n1 [Xanthine, 2,6-dihydroxypurine, reference compound] was tested, and the Bone calcium level [1, 10] was 240.2 ± 8.46 mg/g dry weight, the Bone calcium level [1, 11] was 228.6 ± 7.08 mg/g dry weight and the “Significant effect on increasing calcium level in the bone tissue (in words)” value ([1]; 48 h culture) was “could not be obtained”. The Bone calcium level [2, 10] was 188.2 ± 3.34 mg/g dry weight, the Bone calcium level [2, 11] was 189.8 ± 3.30 mg/g dry weight and the “Significant effect on increasing calcium level in the bone tissue (in words)” value ([2]; 48 h culture) was “could not be obtained”.

CC1=C(/C=C/C(C)=C/C=C/C(C)=C/C=C/C=C(C)/C=C/C=C(C)/C=C/C2=C(C)CCCC2(C)C)C(C)(C)CCC1 [β-carotene, reference compound] was tested, and the Bone calcium level [1, 10] was 215.6 ± 2.78 mg/g dry weight, the Bone calcium level [1, 11] was 232.2 ± 6.66 mg/g dry weight and the “Significant effect on increasing calcium level in the bone tissue (in words)” value ([1]; 48 h culture) was “could not be obtained”. The Bone calcium level [2, 10] was 189.4 ± 8.06 mg/g dry weight, the Bone calcium level [2, 11] was 195.4 ± 10.10 mg/g dry weight and the “Significant effect on increasing calcium level in the bone tissue (in words)” value ([2]; 48 h culture) was “could not be obtained”.

B1: Parathyroid hormone: peptide hormone secreted from the accessory thyroid, causes bone mineral dissolution (bone resorption); “Parathormone” of Sigma (peptide, UniProt P01270 32-115, looked up)
Parathyroid hormone: SVSEIQLMHNLGKHLNSMERVEWLRKKLQDVHNFVALGAPLAPRDAGSQRPRKKEDNVLVESHEKSLGEADKADVNVLTKAKSQ
modifications: Parathyroid hormone
notes: peptide hormone secreted from the accessory thyroid, causes bone mineral dissolution (bone resorption); “Parathormone” of Sigma
With B1 the “Effect of PTH on calcium level in the diaphysis tissue (in words)” value [7, 12] was “significantly reduced”, the Bone calcium level ([7]; diaphysis tissue, parathyroid hormone 10^−7 M alone, 48 h culture) was 180.0 ± 3.23* mg/g dry weight and the “Effect of PTH on calcium level in the metaphysis tissue (in words)” value [8, 12] was “significantly reduced”. The Bone calcium level ([8]; metaphysis tissue, parathyroid hormone 10^−7 M alone, 48 h culture) was 167.0 ± 0.96* mg/g dry weight.

Reference: US8148431B2, “Osteogenesis promoter containing β-cryptoxanthin as the active ingredient” (Kemin Health, L.C., priority 2002, dated 2012)
